In US20120277312A1, “Ethylgallate and Related Compounds as a Treatment for Sepsis and Septic Shock” (priority 2009, published 2012):

Experiments:
[1] = test system: lysozyme's vasodilatory effect in canine carotid artery preparation; assay: Lysozyme-induced vasodilation in canine carotid artery preparation (in-vitro)
Method: Lysozyme produces vasodilation by intrinsically generating hydrogen peroxide (H2O2) that leads to activation of signaling pathways resulting in these hemodynamic effects (7).
Ethyl gallate is added to food as an antioxidant. It is the ethyl ester of gallic acid. Though found naturally in a variety of plant sources including walnuts (8), ethyl gallate is produced from gallic acid and ethanol (9). […] It is of note that if a substance could not inhibit lysozyme's effect in-vitro, then it would be worthless to pursue an in-vivo study.

non-septic dog = assay: Ethyl gallate infusion in non-septic dogs; type: in vivo
Text: The effect of ethyl-gallate treatment on hemodynamics in the non-septic animal was different from that found in the septic animal. In this protocol, 5 grams of ethyl-gallate were given in a similar manner over the course of the 5 hr treatment-phase of the study.
We have thus far studied 5 dogs in septic shock in which ethyl gallate was infused. We have compared the results obtained in this group with those found in septic animals (n=5) in which this treatment was not given. In addition, in preliminary experiments, we have looked at the effect of ethyl gallate infusion on hemodynamics in non-septic animals (n=3). In a time control non-septic group in which placebo (normal saline solution) was given, we have studied one animal.
The purpose of this study was to determine whether ethyl-gallate could reverse the fall in MAP that occurs in this sepsis model. Ethyl gallate was infused after MAP pressure fell approximately 30 to 40% from the baseline value in which this decline in MAP was not responsive to volume infusion to return Pwp to the baseline value (septic shock condition). This approach would be consistent with that observed in the clinical situation in which vasopressors, such as norepinephrine would be given at this interval. In the two sepsis groups, the animals were allocated in randomized fashion in which one received ethyl-gallate and volume infusion, while in the other, volume infusion alone was given. In the two non-sepsis groups, one received ethyl-gallate while the other received placebo treatment. In the non-sepsis groups, only maintenance volume for anesthesia and for placebo drugs was given over the course of the experiment.

[2] = Hydrogen peroxide scavenging (Amplex Red assay, electrochemical techniques, glucosidase/glucose assay); type: biochemical; details: multiple methodologies
Text: This generation appears to involve the mechanism described by Wentworth et al in which proteins can utilize water as a catalyst to generate H2O2 (12) Once formed by lysozyme, H2O2 then reacts with intrinsic catalase to form a species of catalase termed Compound I (2) Compound I then acts to generate cyclic-guanosine monophosphate which in turn causes vasodilation. […] These as well as other mechanisms may account for the efficacy of ethyl-gallate treatment in septic shock.

[3] = non-septic dogs, 5 grams over 5 hr
[4] = non-septic dogs, ethyl-gallate infusion

For CCOC(=O)c1cc(O)c(O)c(O)c1 [ethyl gallate], the “prevention of vasodilation caused by lysozyme” value ([1]; canine carotid artery and superior mesenteric arterial preparations) was “prevented”, the “block of lysozyme's vasodilatory effect” value ([1]; canine carotid artery preparation, in-vitro) was “blocked” and the heart rate effect (non-septic dog; non-septic dog, after infusion, FIG. 7) was “slight tachycardia”. For the same compound, the “SVR as compared with pre-treatment” value (non-septic dog; [3]) was “decrease”, the “change in MAP” value (non-septic dog; [3]) was “did not cause a change” and the CO (non-septic dog; [4]) was “appeared to increase”. For the same compound, the SV (non-septic dog; [4]) was “appeared to increase”, the SW (non-septic dog; [4]) was “appeared to increase” and the “scavenging of hydrogen peroxide” value [2] was “can scavenge”.
